# Measured values from ChEMBL document CHEMBL1201862, “PubChem BioAssay data set” (2004).
# Active and inactive are the calls of the source.
# Experiments:
# [1] = biological target: T1, Polyadenylate-binding protein 1 (Homo sapiens, UniProt P11940); assay: MLLE binding blockers, Cy5 peptide tracer – biochemical, fluorescence polarization, Cy5-PAM2 peptide, secondary, miRNA deadenylation inhibitor project, dose response (AID 602260); type: functional; details: read-out: IC50_Mean
# [2] = biological target: T1, Polyadenylate-binding protein 1; assay: MLLE domain peptide-binding blockers, IC50 – biochemical, fluorescence polarization, FITC-PAM2 peptide, dose response (AID 602259); type: functional; details: read-out: IC50_Mean
# [3] = luciferase reporter signal suppression in cells – H4 neuroglioma cells, luminescence, dose response (AID 1990); type: functional, cell-based
# [4] = biological target: T2, RNA-binding protein pos-1 (Caenorhabditis elegans, UniProt G5EF15); assay: disruptors of C. elegans POS-1 RNA interaction – biochemical, fluorescence polarization, dose response (AID 1964);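 also: purified POS-1 fused to maltose binding protein made in E. coli; potency of compounds blocking POS-1 binding to fluorescent RNA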
# T2 sequence (G5EF15 whole entry): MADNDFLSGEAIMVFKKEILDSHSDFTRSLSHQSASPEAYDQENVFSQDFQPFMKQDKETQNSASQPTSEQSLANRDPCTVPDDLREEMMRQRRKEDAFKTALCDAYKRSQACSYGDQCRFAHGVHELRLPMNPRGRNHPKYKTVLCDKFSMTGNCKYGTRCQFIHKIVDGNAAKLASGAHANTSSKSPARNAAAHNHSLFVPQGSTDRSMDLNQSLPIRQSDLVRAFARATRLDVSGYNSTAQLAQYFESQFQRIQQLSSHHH
# [5] = biological target: T3, Zinc finger protein mex-5 (Caenorhabditis elegans, UniProt Q9XUB2); assay: potency of MEX-5 RNA-binding blockers – biochemical, C. elegans, fluorescence polarization, dose response (AID 1960)
# T3 sequence (Q9XUB2 whole entry): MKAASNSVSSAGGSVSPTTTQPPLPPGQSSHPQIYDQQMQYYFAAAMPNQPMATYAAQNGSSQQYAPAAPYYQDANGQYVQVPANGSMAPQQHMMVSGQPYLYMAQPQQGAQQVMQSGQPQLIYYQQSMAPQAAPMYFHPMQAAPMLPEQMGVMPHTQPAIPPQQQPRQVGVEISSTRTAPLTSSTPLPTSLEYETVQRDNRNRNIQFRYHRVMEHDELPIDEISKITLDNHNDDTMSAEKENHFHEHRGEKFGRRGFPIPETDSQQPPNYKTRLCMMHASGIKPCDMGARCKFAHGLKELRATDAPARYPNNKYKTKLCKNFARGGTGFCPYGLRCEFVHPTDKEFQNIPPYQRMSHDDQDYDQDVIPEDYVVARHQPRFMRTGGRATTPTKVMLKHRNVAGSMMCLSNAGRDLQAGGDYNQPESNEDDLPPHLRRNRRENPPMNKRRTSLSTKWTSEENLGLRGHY
# [6] = alpha-synuclein stem-loop luciferase translation blockers – H4 neuroglioma cells, luminescence, confirmation (AID 1988); type: functional, cell-based
# [7] = Luminescence Cell-Based Dose Response HTS to Identify Inhibitors of 5'UTR Stem-Loop Driven Prion Protein mRNA Translation in H4 Neuroglioblastoma Cells. [Related pubchem assays: 1827 (Project Summary), 1813 (Primary HTS)]; type: functional
# [8] = viability of PTEN-deleted HCT116 cells – cell-based, HCT116 PTEN knockout, dose response (AID 1047); type: functional;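 also: HCT116 colon tumor cells with PTEN knocked out; cells exposed to compound for 60 hours before readout; potency for loss of cell viability measured by luminescence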
# [9] = viability of HCT116 lacking mutant beta-catenin – cell-based, human colon tumor, dose response (AID 1045); type: functional;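 also: HCT116 colon tumor cells with beta catenin knocked out; cells exposed to compound for 60 hours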
# Cytochrome P450 1A2 = biological target: T4, Cytochrome P450 1A2 (Homo sapiens, UniProt P05177);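 also: PubChem cytochrome P450 panel assay, CYP1A2 panel member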
# T4 sequence (P05177 whole entry): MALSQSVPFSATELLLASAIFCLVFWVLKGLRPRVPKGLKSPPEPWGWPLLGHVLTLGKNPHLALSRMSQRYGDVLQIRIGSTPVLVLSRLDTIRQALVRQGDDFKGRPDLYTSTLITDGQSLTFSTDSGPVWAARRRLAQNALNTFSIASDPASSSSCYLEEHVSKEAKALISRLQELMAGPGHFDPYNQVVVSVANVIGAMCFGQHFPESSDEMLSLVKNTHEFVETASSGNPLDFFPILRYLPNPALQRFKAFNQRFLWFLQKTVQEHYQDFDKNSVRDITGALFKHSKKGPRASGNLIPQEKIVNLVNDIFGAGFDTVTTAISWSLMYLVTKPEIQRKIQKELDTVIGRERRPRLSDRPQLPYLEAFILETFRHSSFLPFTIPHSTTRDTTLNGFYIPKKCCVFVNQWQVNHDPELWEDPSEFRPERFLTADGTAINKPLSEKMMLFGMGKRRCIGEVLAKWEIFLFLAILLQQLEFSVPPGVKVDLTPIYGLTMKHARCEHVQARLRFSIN
# Cytochrome P450 3A4 = Cytochrome P450 3A4 (Homo sapiens, UniProt P08684);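 also: CYP3A4 tested as one member of a cytochrome P450 panel screen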
# [10] = Luminescence Cell-Based Dose Confirmation HTS to Identify Activators of 5'UTR Stem-Loop Driven Alpha-Synuclein mRNA Translation in H4 Neuroglioblastoma Cells. [Related pubchem assays: 1829 (Project Summary), 1814 (Primary HTS)]; type: functional
# [11] = Luminescence Cell-Based Dose Response HTS to Identify Activators of Luciferase Translation or Activity in H4 […] Cells. [Related pubchem assays: 1829 (Project Summary), 1814 (Primary HTS)]; type: functional
# H4 = assay: Luminescence Cell-Based Dose Response HTS to Identify Activators of 5'UTR Stem-Loop Driven Prion Protein mRNA Translation in H4 Neuroglioblastoma Cells. [Related pubchem assays: 1829 (Project Summary), 1814 (Primary HTS)]; type: functional; details: Homo sapiens
# Cytochrome P450 2D6 = Cytochrome P450 2D6 (Homo sapiens, UniProt P10635);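 also: CYP2D6 member of a cytochrome P450 panel assay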
# Cytochrome P450 2C19 = Cytochrome P450 2C19 (Homo sapiens, UniProt P33261); assay: Cytochrome panel assay with activity outcomes. Panel member name: p450-cyp2c19 Compounds with AC50 equal or less than 10 uM are considered active; type: functional; details: read-out: AC50
# INS1 = assay: INS-1E survival protection against cytokine death – cell-based, luminescence, retest, dose response (AID 449756); type: functional; details: Rattus norvegicus;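 also: cell death triggered by IL-1 beta plus TNF-alpha plus IFN-gamma mixture; protective hits raise ATP signal compared with cytokine alone wells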
# Sequence of Cytochrome P450 3A4 (P08684 whole entry): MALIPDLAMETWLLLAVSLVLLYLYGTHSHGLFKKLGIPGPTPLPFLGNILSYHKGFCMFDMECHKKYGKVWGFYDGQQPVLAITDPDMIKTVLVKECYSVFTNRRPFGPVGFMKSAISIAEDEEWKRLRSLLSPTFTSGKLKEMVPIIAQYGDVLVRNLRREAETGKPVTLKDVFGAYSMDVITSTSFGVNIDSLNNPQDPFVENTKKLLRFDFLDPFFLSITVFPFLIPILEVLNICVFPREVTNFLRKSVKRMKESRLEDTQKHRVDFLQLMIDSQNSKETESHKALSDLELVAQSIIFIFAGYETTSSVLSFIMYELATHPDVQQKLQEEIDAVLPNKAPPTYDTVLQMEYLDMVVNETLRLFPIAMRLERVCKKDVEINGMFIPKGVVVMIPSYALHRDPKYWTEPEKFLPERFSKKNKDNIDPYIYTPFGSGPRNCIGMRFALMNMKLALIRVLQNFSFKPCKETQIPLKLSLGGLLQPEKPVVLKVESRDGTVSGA
# T1 sequence (P11940 whole entry, the tested form may be a part): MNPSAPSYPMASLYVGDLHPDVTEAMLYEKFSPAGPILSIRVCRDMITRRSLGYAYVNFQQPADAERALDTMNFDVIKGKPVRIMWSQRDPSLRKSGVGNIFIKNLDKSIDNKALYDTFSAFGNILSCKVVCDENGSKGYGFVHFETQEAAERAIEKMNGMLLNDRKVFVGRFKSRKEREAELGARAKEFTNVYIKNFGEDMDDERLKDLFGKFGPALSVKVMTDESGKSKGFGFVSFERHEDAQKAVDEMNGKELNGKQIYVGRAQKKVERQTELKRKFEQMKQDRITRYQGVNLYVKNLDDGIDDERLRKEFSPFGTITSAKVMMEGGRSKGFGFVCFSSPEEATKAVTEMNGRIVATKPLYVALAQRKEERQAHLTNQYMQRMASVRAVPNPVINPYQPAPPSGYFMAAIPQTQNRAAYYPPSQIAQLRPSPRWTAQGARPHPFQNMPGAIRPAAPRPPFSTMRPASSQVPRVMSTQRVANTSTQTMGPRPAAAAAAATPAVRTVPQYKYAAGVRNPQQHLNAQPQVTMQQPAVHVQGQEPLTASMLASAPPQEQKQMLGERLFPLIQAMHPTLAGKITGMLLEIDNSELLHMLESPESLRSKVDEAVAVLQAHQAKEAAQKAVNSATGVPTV
# Sequence of Cytochrome P450 2C19 (P33261 whole entry): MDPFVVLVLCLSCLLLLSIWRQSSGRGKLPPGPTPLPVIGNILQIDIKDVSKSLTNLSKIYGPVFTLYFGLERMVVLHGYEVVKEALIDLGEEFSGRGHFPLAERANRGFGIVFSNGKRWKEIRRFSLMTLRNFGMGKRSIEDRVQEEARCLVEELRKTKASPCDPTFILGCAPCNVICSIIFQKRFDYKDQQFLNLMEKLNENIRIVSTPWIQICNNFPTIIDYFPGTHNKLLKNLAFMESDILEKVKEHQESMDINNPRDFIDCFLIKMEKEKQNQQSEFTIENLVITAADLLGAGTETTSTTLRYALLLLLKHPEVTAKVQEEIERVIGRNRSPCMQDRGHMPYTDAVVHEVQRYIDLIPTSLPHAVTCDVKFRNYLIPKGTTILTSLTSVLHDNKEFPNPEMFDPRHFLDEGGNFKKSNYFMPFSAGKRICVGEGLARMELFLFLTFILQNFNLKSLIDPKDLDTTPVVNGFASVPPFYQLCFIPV
# Sequence of Cytochrome P450 2D6 (P10635 whole entry): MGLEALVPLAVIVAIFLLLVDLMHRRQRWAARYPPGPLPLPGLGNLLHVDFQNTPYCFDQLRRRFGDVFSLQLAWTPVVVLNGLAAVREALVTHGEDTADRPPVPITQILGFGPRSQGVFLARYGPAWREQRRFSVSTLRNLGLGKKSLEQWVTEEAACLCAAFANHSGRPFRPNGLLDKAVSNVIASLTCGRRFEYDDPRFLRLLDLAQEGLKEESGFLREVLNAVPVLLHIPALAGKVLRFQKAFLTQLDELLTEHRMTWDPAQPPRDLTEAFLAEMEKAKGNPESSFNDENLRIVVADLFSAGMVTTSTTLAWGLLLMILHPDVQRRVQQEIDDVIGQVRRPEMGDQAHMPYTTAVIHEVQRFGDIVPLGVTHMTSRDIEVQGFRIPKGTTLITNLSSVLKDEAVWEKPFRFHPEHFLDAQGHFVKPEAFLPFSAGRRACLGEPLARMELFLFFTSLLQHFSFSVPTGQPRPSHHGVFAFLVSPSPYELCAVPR
structure (smiles),measurement,setting,value
O=C(CSc1ccccc1C(=O)O)NC1CCCCCC1,IC50,[1],> 66 µM (inactive)
same,IC50,[2],> 66 µM (inactive)
CCSc1sccc1C1C(C#N)=C(N)N(c2cccnc2)C2=C1C(=O)CCC2 (configuration not stated),IC50,[1],> 66 µM (inactive)
same,IC50,[2],> 66 µM (inactive)
Cc1cccn2c(=O)c3cc(C(=O)NCCN4CCOCC4)c(=N)n(Cc4cccnc4)c3nc12,EC50,[3],12.6 µM (active)
same,EC50,[4],> 300 µM (not active)
same,EC50,[5],87.2 µM (active)
same,EC50,[6],9.91 µM (active)
CC(=O)c1c(N2CCOCC2)nc(=S)n(-c2ccccc2)c1C,IC50,[1],> 66 µM (inactive)
same,IC50,[2],> 66 µM (inactive)
CC(C)CCn1c(N2CCN(c3cccc(Cl)c3)CC2)nc2c1c(=O)[nH]c(=O)n2C,EC50,[3],18.9 µM (active)
same,EC50,[7],> 60 µM (not active)
same,EC50,[6],> 120 µM (not active)
same,EC50,[8],26.1 µM (active)
same,EC50,[9],33.5 µM (active)
COc1cc2c(cc1OC)CN(C(=O)CSc1ccccc1C)CC2,IC50,[1],> 66 µM (inactive)
same,IC50,[2],> 66 µM (inactive)
COc1ccc(/C=C/C(=O)Nc2ccccc2C(=O)N2CCCC2)cc1,AC50,Cytochrome P450 1A2,28.2 µM (inconclusive)
same,AC50,Cytochrome P450 3A4,1 µM (inconclusive)
COc1ccc(/C=C2/N=C(c3cccs3)OC2=O)cc1OC(C)C,EC50,[4],> 300 µM (not active)
same,EC50,[5],41.1 µM (active)
COc1ccc(NC(S)=Nc2ccc3nccnc3c2)cc1,EC50,[10],> 120 µM (not active)
same,EC50,[11],7.7 µM (active)
same,EC50,H4,8.17 µM (active)
CC1Cc2ccccc2N1C(=O)CSc1n[nH]c2c3cc(F)ccc3nc-2n1 (configuration not stated),EC50,[8],24.5 µM (active)
same,EC50,[9],25 µM (active)
Cc1n[nH]c(SC(C(=O)c2ccccc2)c2ccccc2)n1 (configuration not stated),AC50,Cytochrome P450 2D6,20 µM (inconclusive)
same,AC50,Cytochrome P450 1A2,39.8 µM (inconclusive)
Cc1cnn(-c2cc(Oc3ccccc3)ncn2)c1,EC50,[10],1.11 µM (active)
same,EC50,[11],97.4 µM (active)
same,EC50,H4,11 µM (active)
COC(=O)CCC(=O)OC1(C)C(=O)C2=COC(c3ccc(OC)cc3)=CC2=C(Br)C1=O (configuration not stated),EC50,[4],91.5 µM (active)
same,EC50,[5],33.1 µM (active)
c1ccc(CN2CCN(c3nc(-c4ccccn4)nc4ccccc34)CC2)cc1,EC50,[8],10.6 µM (active)
same,EC50,[9],8.05 µM (active)
Cc1ccc2sc(C)[n+](CCC(C)S(=O)(=O)[O-])c2c1 (configuration not stated),IC50,[1],> 66 µM (inactive)
same,IC50,[2],> 66 µM (inactive)
Oc1ccc(C(=S)N2CCCCCC2)cc1,IC50,[1],> 66 µM (inactive)
same,IC50,[2],> 66 µM (inactive)
COc1ccc(C2C(C#N)=C(N)OC3=C2C(=O)CCC3)cc1Cn1nc(C)c([N+](=O)[O-])c1C (configuration not stated),EC50,[4],> 300 µM (not active)
same,EC50,[5],> 300 µM (not active)
Cn1c(=O)c(C(=O)CSc2nnc(Nc3ccccc3)s2)c(N)n(Cc2ccccc2)c1=O,EC50,[8],8.05 µM (active)
same,EC50,[9],9.15 µM (active)
Brc1ccc2oc3c(N4CCOCC4)ncnc3c2c1,EC50,[10],18.5 µM (active)
same,EC50,[11],4.18 µM (active)
same,EC50,H4,14.7 µM (active)
CCOc1cc(C(=S)N2CCOCC2)ccc1OC,IC50,[1],> 66 µM (inactive)
same,IC50,[2],> 66 µM (inactive)
COc1ccccc1-c1nccc(NC2CCNCC2)n1,AC50,Cytochrome P450 2C19,1.58 µM (inconclusive)
same,AC50,Cytochrome P450 1A2,15.8 µM (inconclusive)
O=C(OCc1ccc(Cl)cc1)c1ccccc1C(=O)c1ccccc1,AC50,Cytochrome P450 2C19,0.0891 µM (inconclusive)
same,AC50,Cytochrome P450 1A2,3.55 µM (inconclusive)
same,AC50,Cytochrome P450 3A4,17.8 µM (inconclusive)
CCOC(=O)c1sc(NC(=O)c2c(C)nn(Cc3ccccc3)c2C)cc1C,EC50,[8],30.4 µM (active)
same,EC50,[9],27.7 µM (active)
same,AC50,INS1,37.2 µM (active)
CCCCc1noc2c1/C(=N\O)CC(c1ccccc1)C2 (configuration not stated),EC50,[10],> 120 µM (not active)
same,EC50,[11],6.02 µM (active)
same,EC50,H4,27.9 µM (active)
C/C(NCc1ccc2c(c1)OCO2)=C1/C(=O)NC(=O)N(c2ccccc2)C1=O,EC50,[4],> 300 µM (not active)
same,EC50,[5],> 300 µM (not active)
COc1ccc(C(=O)N=C(N)Nc2nc3ccccc3o2)cc1,EC50,[10],> 120 µM (not active)
same,EC50,[11],24.2 µM (active)
same,EC50,H4,29.5 µM (active)
NS(=O)(=O)c1ccc(NC(=O)COC(=O)c2cn(-c3ccccc3)nc2-c2ccc(F)cc2)cc1,EC50,[4],> 300 µM (not active)
same,EC50,[5],> 300 µM (not active)
CC(=O)NC(Cc1ccc(F)cc1)C(=O)O (configuration not stated),AC50,Cytochrome P450 1A2,0.01 µM (inconclusive)
Cc1cccc(-c2nc(=S)c3c(o2)CCCC3)c1,IC50,[1],> 66 µM (inactive)
same,IC50,[2],> 66 µM (inactive)
CCNc1ncc2nc(-c3cc(F)cc(F)c3)c(=O)n(CCc3ccccc3)c2n1,AC50,Cytochrome P450 1A2,25.1 µM (inconclusive)
same,AC50,Cytochrome P450 3A4,12.6 µM (inconclusive)
COc1ccc(OCC(=O)NC(=S)Nc2ccc(S(=O)(=O)Nc3cc(OC)nc(OC)n3)cc2)cc1,IC50,[1],> 66 µM (inactive)
same,IC50,[2],> 66 µM (inactive)
Cc1ccn2c(=O)nc(SCC(=O)Nc3cc(C)on3)nc2c1,EC50,[4],> 300 µM (not active)
same,EC50,[5],> 300 µM (not active)
Cc1ccc(NC(=O)c2cc(-c3ccccc3)nn2-c2ccccc2)c(Br)c1,EC50,[8],34.6 µM (active)
same,EC50,[9],23.5 µM (active)
Cc1ccccc1Nc1nc(N)nc(O)c1N=O,IC50,[1],> 66 µM (inactive)
same,IC50,[2],38.2 µM (inactive)
C(=N\Nc1nc(-c2ccccc2)cs1)/c1ccco1,EC50,[10],5.18 µM (active)
same,EC50,[11],7.64 µM (active)
same,EC50,H4,33.2 µM (active)
COC(=O)c1ccc(CO/N=C2\CCCc3nonc32)cc1,EC50,[10],92.4 µM (active)
same,EC50,[11],17.8 µM (active)
same,EC50,H4,12.9 µM (active)
COc1cccc(NC(=O)CSc2nc3ccccc3cc2Cc2ccccc2)c1,AC50,Cytochrome P450 1A2,4.47 µM (inconclusive)
CS(=O)(=O)NNC(=O)Cn1nnc(-c2ccc(OCc3ccccc3Cl)cc2)n1,EC50,[10],18.2 µM (active)
same,EC50,[11],25 µM (active)
same,EC50,H4,> 120 µM (not active)
COC(=O)c1ccc(-n2cnc3ccccc32)nc1,EC50,[10],14.1 µM (active)
same,EC50,[11],16.1 µM (active)
same,EC50,H4,> 120 µM (not active)
CCC(C(=O)NC1CCCC1)N(C(=O)Cn1nnc(-c2ccc(C)o2)n1)c1cnc2ccccc2c1 (configuration not stated),EC50,[8],17.2 µM (active)
same,EC50,[9],17.5 µM (active)
CN1CCN(C(=O)c2ccc(-n3cccc3)cc2)CC1,AC50,Cytochrome P450 2C19,25.1 µM (inconclusive)
same,AC50,Cytochrome P450 2D6,15.8 µM (inconclusive)
same,AC50,Cytochrome P450 1A2,25.1 µM (inconclusive)
